Test results as given in US12252524B2, “GIP/GLP1 co-agonist compounds” (Eli Lilly and Company, priority 2018, dated 2025).
Where two headings read alike, the source gives them in different places. Numbered stars: 1 amine (or outer) side, 2 acyl side, 3 side chain; on linkers, the order of the positions; unused ones are H or OH. Square brackets hold non-standard residues; d marks the D form. Side chains are listed from the residue outwards. Peptide text beside a SMILES is read from it. * marks the point of attachment. C18 diacid = O=C(O)CCCCCCCCCCCCCCCCC(=O)*; αMePhe(2-F) = C[C@](N)(Cc1ccccc1F)C(=O)O; γGlu = O=C(O)[C@H](CCC(=O)[*:2])N[*:1]; αMeL = CC(C)C[C@](C)(N)C(=O)O; Orn = NCCC[C@H](N)C(=O)O; AEEA = NCCOCCOCC(=O)O; Aib = CC(C)(N)C(=O)O

Key:
[1] = in vivo; details: male, Sprague Dawley, rat, plasma, sc, 50 nmol/kg
Experimental: (§1) The pharmacokinetics of select Examples are evaluated following a single subcutaneous (SC) administration of 50 nMol/kg (dissolved in PBS, pH 7.4) or single 1 μmol/kg (mixed with 250 mM sodium decanoate (“C10”) and 12 mg/mL soybean trypsin inhibitor (SBTI)) intrajejunal (IJ) administration to male Sprague Dawley rats. […] Pharmacokinetic parameters are calculated using individual plasma concentrations. A qualified LC/MS method that measures the intact mass of the Example is used to determine plasma (K3 EDTA) concentrations. Each Example is tested with an analog peptide as an internal standard. Immunoaffinity based precipitation with anti-GIP/GLP1 antibodies is used to extract each test peptide and analog.

[2] = in vivo; details: male, Sprague Dawley, rat, plasma, other: intrajejunal, 1 umol/kg
Experimental: as §1

[3] = single intrajejunal 1 μmol/kg with 250 mM C10 and 12 mg/mL SBTI, male Sprague Dawley rats
Experimental: as §1

[4] = test system: CD8+ T cell depleted peripheral blood mononuclear cells; assay: CD4+ T cell assay for potential clinical immunogenicity
Experimental: The purpose of this study is to determine the relative potential for clinical immunogenicity of a compound.
CD8+ T cell depleted peripheral blood mononuclear cells are prepared and labeled with Carboxyfluorescein Diacetate Succinimidyl Ester (CFSE, Invitrogen) from a cohort of 10 healthy donors. […] Cultures are incubated for 7 days at 37° C. with 5% CO2. On day 7, samples are analyzed by flow cytometry using High Throughput Sampler (HTS). Data is analyzed using FlowJo® Software (FlowJo, LLC, TreeStar).

[5] = biological target: T1, human GLP-1R (Homo sapiens, UniProt P43220); assay: [125I]-GLP-1 binding (SPA), human GLP-1 receptor; parameters: expressed in transfected cells; crude membranes
T1 sequence (P43220 24-463): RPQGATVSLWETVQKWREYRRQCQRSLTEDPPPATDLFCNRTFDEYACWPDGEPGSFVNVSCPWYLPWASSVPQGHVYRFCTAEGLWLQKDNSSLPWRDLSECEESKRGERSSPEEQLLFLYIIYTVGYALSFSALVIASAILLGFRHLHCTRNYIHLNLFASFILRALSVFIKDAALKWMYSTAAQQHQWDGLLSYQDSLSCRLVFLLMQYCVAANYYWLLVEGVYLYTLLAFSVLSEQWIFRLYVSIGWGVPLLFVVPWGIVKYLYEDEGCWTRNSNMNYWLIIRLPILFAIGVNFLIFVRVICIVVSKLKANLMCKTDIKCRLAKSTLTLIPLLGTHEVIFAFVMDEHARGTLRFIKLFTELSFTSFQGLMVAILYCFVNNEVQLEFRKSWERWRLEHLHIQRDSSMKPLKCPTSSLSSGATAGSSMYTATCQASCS
Method in brief: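 Frozen cell pellets are lysed on ice in hypotonic Tris buffer, pH 7.5, homogenized, and centrifuged to a membrane pellet resuspended at about 1 to 3 mg/mL. Binding is then measured in HEPES-based buffer at pH 7.4, and curves are fitted to give IC50 and Ki.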

[6] = single subcutaneous 200 nMol/kg, male CD-1 mice
Experimental: The pharmacokinetics of select Examples are evaluated following a single subcutaneous administration of 200 nMol/kg to male CD-1 mice. […] Plasma (K3 EDTA) concentrations are determined using a qualified LC/MS method that measures the intact mass of the Examples. […] Instruments are combined for LC/MS detection.

[7] = single subcutaneous 50 nMol/kg, male Sprague Dawley rats; mean (SD)
Experimental: as §1

[8] = Proteolytic stability assay in 1% rat small intestinal fluid (rSIF)
[9] = in vivo; details: male, cynomolgus monkey, plasma, sc, 50 nmol/kg
Experimental: (§2) Pharmacokinetics in male Cynomolgus Monkeys The pharmacokinetics of select Examples are evaluated following a single subcutaneous administration of 50 nMol/kg to male cynomolgus monkeys. […] Peptide plasma (K3 EDTA) concentrations are determined using a qualified LC/MS method that measured the intact mass of the compound. […] Instruments are combined for LC/MS detection.

[10] = single subcutaneous 50 nMol/kg, male cynomolgus monkeys
Experimental: as §2

[11] = biological target: T1, human GLP-1R; assay: GLP-1R CHO cell β-arrestin recruitment assay; format: cell-based; parameters: host or cells: CHO-K1 PathHunter cells, assay-ready frozen
Method in brief: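 PathHunter CHO-K1 cells with ProLink-tagged human GLP-1R and enzyme-acceptor-tagged β-arrestin-2 treated with serially diluted peptides in assay buffer containing 0.1% hydrolyzed casein, 90 min at 37 °C.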

[12] = Examples 10 uM, KLH 0.33 μM, 7 days
[13] = rat, real gastrointestinal fluid or homogenate, pH 8

CC[C@H](C)[C@H](NC(=O)[C@H](CC(C)C)NC(=O)[C@H](Cc1ccc(O)cc1)NC(=O)[C@@H](CCC(=O)O)NC(=O)[C@@H](NC(=O)[C@H](Cc1ccccc1)NC(=O)[C@H](CCC(=O)O)NC(=O)C(C)(C)NC(=O)[C@H](CCC(N)=O)NC(=O)[C@H](C)NC(=O)[C@H](CCCCNC(=O)COCCOCCNC(=O)COCCOCCNC(=O)CC[C@H](NC(=O)CCCCCCCCCCCCCCCCC(=O)O)C(=O)O)NC(=O)[C@H](CCCN)NC(=O)[C@H](CC(=O)O)NC(=O)[C@H](CC(C)C)NC(=O)[C@](C)(CC(C)C)NC(=O)[C@@H](NC(=O)[C@H](CO)NC(=O)[C@H](Cc1ccc(O)cc1)NC(=O)[C@H](CC(=O)O)NC(=O)[C@H](CO)NC(=O)[C@@H](NC(=O)[C@](C)(Cc1ccccc1F)NC(=O)[C@@H](NC(=O)CNC(=O)[C@H](CCC(=O)O)NC(=O)C(C)(C)NC(=O)[C@@H](N)Cc1ccc(O)cc1)[C@@H](C)O)[C@@H](C)O)[C@@H](C)CC)[C@@H](C)CC)C(=O)N[C@@H](CCC(=O)O)C(=O)NCC(=O)NCC(=O)N1CCC[C@H]1C(=O)N[C@@H](CO)C(=O)N[C@@H](CO)C(=O)NCC(=O)N[C@@H](C)C(=O)N1CCC[C@H]1C(=O)N1CCC[C@H]1C(=O)N1CCC[C@H]1C(=O)N[C@@H](CO)C(N)=O [Example 2] (H-Y[Aib]EGT[αMePhe(2-F)]TSDYSI[αMeL]LD[Orn]K([AEEA-AEEA-γGlu-C18 diacid])AQ[Aib]EFI[dE]YLIEGGPSSGAPPPS-NH2; N-terminus assumed) showed a CL/F [1] of 4.32 mL/h/kg, a Tmax [1] of 14.7 h and a half-life [1] of 20.3 h. The Tmax [2] was 0.25 h, the AUCINF_D_obs [3] was 6.6 hr*kg*nmol/L/nmol and the Cmax/D ([3]; mean (SD)) was 0.56 (0.40) kg*nmol/L/nmol. For the same compound, the “frequency of positive CD+ T cell response (CDI>2.5)” value ([4]; CD4+ T cell assay) was “low”, the “% Donor Response (CD4+ T cell response)” value [4, 12] was 22% and the “Median Response Strength in positive donors (CDI)” value [4, 12] was 3.68 CDI. It also gave a Ki [5] of 2.35 nM, an AUCINF_D_obs [6] of 77.23 hr*kg*nmol/L/nmol and a Cmax/D [6] of 5.4 kg*nmol/L/nmol. For the same compound, the AUCINF_D_obs [7] was 231.7 (9.6) hr*kg*nmol/L/nmol, the Cmax/D [7] was 5.19 (0.20) kg*nmol/L/nmol and the “percentage of peptide not cleaved using rSIF” value ([8]; 0 min, 1% rSIF, 37° C.) was 100%. For the same compound, the remaining at 0.05 h, 0.4 mg/mL [8, 13] was 75.5%, the remaining at 0.25 h, 0.4 mg/mL [8, 13] was 18.3% and the remaining at 1 h, 0.4 mg/mL [8, 13] was 0.3%. It also gave a CL/F [9] of 0.49 mL/h/kg, a Tmax [9] of 24 h and a half-life [9] of 102 h. For the same compound, the AUCINF_D_obs [10] was 2059 hr*kg*nmol/L/nmol, the Cmax/D [10] was 11.7 kg*nmol/L/nmol and the EC50 [11] was 8.82 nM. The “hGLP1R B-Arrestin2 % Top” value ([11]; normalized to GLP-1 maximum control) was 96.1%.
